From PMC10408569, “Recruitment of hexahydroquinoline as anticancer scaffold targeting inhibition of wild and mutants EGFR (EGFR^WT, EGFR^T790M, and EGFR^L858R)” (Journal of Enzyme Inhibition and Medicinal Chemistry, 2023)

Columns and labels:
LOX IMVI = assay: NCI-60 anticancer screening (SRB); assay type: cell-based; conditions: Homo sapiens, melanoma, one dose 10 μM, read-out: Growth Inhibition Percentage (GI %)
MCF7 = assay: NCI-60 anticancer screening (SRB); assay type: cell-based; conditions: Homo sapiens; MCF7, breast cancer; one dose 10 μM; read-out: Growth Inhibition Percentage (GI %)
CCRF-CEM = assay: NCI-60 anticancer screening (SRB); assay type: cell-based; conditions: Homo sapiens, leukemia, one dose 10 μM, read-out: Growth Inhibition Percentage (GI %)
SK-OV-3 = assay: NCI-60 anticancer screening (SRB); assay type: cell-based; conditions: Homo sapiens; SK-OV-3, ovarian cancer; one dose 10 μM; read-out: Growth Inhibition Percentage (GI %)
UO-31 = assay: NCI-60 anticancer screening (SRB); assay type: cell-based; conditions: Homo sapiens; UO-31, renal cancer; one dose 10 μM; read-out: Growth Inhibition Percentage (GI %)
OVCAR-5 = assay: NCI-60 anticancer screening (SRB); assay type: cell-based; conditions: Homo sapiens; OVCAR-5, ovarian cancer; one dose 10 μM; read-out: Growth Inhibition Percentage (GI %)
EGFR^WT = EGFR^WT (Homo sapiens, UniProt P00533); assay: EGFR kinase inhibitory assay (HTRF)
ACHN = assay: NCI-60 anticancer screening (SRB); assay type: cell-based; conditions: Homo sapiens, renal cancer, one dose 10 μM, read-out: Growth Inhibition Percentage (GI %)
COLO 205 = assay: NCI-60 anticancer screening (SRB); assay type: cell-based; conditions: Homo sapiens; COLO 205, colon cancer; one dose 10 μM; read-out: Growth Inhibition Percentage (GI %)
SR = assay: NCI-60 anticancer screening (SRB); assay type: cell-based; conditions: Homo sapiens, leukemia, one dose 10 μM, read-out: Growth Inhibition Percentage (GI %)
PC-3 = assay: NCI-60 anticancer screening (SRB); assay type: cell-based; conditions: Homo sapiens; PC-3, prostate cancer; one dose 10 μM; read-out: Growth Inhibition Percentage (GI %)
MDA-MB-468 = assay: NCI-60 anticancer screening (SRB); assay type: cell-based; conditions: Homo sapiens; MDA-MB-468, breast cancer; one dose 10 μM; read-out: Growth Inhibition Percentage (GI %)
EGFR^L858R = EGFR^L858R (Homo sapiens, UniProt P00533, L858R); assay: biochemical
MOLT-4 = assay: NCI-60 anticancer screening (SRB); assay type: cell-based; conditions: Homo sapiens; MOLT-4, leukemia; one dose 10 μM; read-out: Growth Inhibition Percentage (GI %)
OVCAR-8 = assay: NCI-60 anticancer screening (SRB); assay type: cell-based; conditions: Homo sapiens; OVCAR-8, ovarian cancer; one dose 10 μM; read-out: Growth Inhibition Percentage (GI %)
HCT-116 = assay: NCI-60 anticancer screening (SRB); assay type: cell-based; conditions: Homo sapiens; HCT-116, colon cancer; one dose 10 μM; read-out: Growth Inhibition Percentage (GI %)
OVCAR-3 = assay: NCI-60 anticancer screening (SRB); assay type: cell-based; conditions: Homo sapiens; OVCAR-3, ovarian cancer; one dose 10 μM; read-out: Growth Inhibition Percentage (GI %)
A498 = assay: NCI-60 anticancer screening (SRB); assay type: cell-based; conditions: Homo sapiens; A498, renal cancer; one dose 10 μM; read-out: Growth Inhibition Percentage (GI %)
HOP-92 = assay: NCI-60 anticancer screening (SRB); assay type: cell-based; conditions: Homo sapiens; HOP-92, NSC lung cancer; one dose 10 μM; read-out: Growth Inhibition Percentage (GI %)
K-562 = assay: NCI-60 anticancer screening (SRB); assay type: cell-based; conditions: Homo sapiens, K562; K-562, leukemia; one dose 10 μM; read-out: Growth Inhibition Percentage (GI %)
SW-620 = assay: NCI-60 anticancer screening (SRB); assay type: cell-based; conditions: Homo sapiens; SW-620, colon cancer; one dose 10 μM; read-out: Growth Inhibition Percentage (GI %)
UACC-257 = assay: NCI-60 anticancer screening (SRB); assay type: cell-based; conditions: Homo sapiens; UACC-257, melanoma; one dose 10 μM; read-out: Growth Inhibition Percentage (GI %)
NCI-H226 = assay: NCI-60 anticancer screening (SRB); assay type: cell-based; conditions: Homo sapiens; NCI-H226, NSC lung cancer; one dose 10 μM; read-out: Growth Inhibition Percentage (GI %)
IGROV1 = assay: NCI-60 anticancer screening (SRB); assay type: cell-based; conditions: Homo sapiens, IGROV-1; IGROV1, ovarian cancer; one dose 10 μM; read-out: Growth Inhibition Percentage (GI %)
EGFR^T790M = EGFR^T790M (Homo sapiens, UniProt P00533, T790M); assay: biochemical
MALME-3M = assay: NCI-60 anticancer screening (SRB); assay type: cell-based; conditions: Homo sapiens, melanoma, one dose 10 μM, read-out: Growth Inhibition Percentage (GI %)
U251 = assay: NCI-60 anticancer screening (SRB); assay type: cell-based; conditions: Homo sapiens, U-251; U251, CNS cancer; one dose 10 μM; read-out: Growth Inhibition Percentage (GI %)
SK-MEL-2 = assay: NCI-60 anticancer screening (SRB); assay type: cell-based; conditions: Homo sapiens; SK-MEL-2, melanoma; one dose 10 μM; read-out: Growth Inhibition Percentage (GI %)
OVCAR-4 = assay: NCI-60 anticancer screening (SRB); assay type: cell-based; conditions: Homo sapiens; OVCAR-4, ovarian cancer; one dose 10 μM; read-out: Growth Inhibition Percentage (GI %)
HS 578T = assay: NCI-60 anticancer screening (SRB); assay type: cell-based; conditions: Homo sapiens; HS 578T, breast cancer; one dose 10 μM; read-out: Growth Inhibition Percentage (GI %)
BT-549 = assay: NCI-60 anticancer screening (SRB); assay type: cell-based; conditions: Homo sapiens; BT-549, breast cancer; one dose 10 μM; read-out: Growth Inhibition Percentage (GI %)

Chain of EGFR^WT (P00533 25-1210): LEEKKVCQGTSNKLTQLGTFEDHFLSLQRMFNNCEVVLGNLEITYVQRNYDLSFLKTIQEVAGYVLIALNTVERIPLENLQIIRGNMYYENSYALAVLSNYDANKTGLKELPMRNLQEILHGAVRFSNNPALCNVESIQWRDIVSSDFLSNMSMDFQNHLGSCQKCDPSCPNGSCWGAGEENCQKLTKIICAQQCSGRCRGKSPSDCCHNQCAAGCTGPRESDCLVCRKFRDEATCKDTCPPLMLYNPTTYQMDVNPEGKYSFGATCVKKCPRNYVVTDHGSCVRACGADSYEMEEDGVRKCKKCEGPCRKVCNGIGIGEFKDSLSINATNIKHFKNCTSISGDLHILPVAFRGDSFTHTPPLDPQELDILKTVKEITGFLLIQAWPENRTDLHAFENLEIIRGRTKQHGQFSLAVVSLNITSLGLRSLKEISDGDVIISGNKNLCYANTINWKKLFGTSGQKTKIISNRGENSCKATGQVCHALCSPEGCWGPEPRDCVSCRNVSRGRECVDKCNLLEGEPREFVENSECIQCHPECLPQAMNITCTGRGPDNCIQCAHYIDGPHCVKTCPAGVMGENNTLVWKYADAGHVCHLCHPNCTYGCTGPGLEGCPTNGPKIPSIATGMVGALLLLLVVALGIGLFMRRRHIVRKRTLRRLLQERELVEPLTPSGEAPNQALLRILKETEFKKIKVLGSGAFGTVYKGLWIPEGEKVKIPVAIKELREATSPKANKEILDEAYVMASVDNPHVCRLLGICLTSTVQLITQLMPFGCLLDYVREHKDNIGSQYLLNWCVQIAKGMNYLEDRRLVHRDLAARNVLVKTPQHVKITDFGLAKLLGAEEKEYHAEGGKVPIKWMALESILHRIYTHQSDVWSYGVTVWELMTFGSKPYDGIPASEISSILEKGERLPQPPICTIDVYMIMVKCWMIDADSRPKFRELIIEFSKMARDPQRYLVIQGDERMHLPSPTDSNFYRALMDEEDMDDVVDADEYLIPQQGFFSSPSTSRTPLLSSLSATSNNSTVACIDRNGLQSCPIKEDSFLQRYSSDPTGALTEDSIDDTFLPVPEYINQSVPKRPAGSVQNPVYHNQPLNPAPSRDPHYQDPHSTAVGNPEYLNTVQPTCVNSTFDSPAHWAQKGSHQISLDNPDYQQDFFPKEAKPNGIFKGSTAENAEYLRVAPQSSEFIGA
Chain of EGFR^L858R (P00533 25-1210 L858R): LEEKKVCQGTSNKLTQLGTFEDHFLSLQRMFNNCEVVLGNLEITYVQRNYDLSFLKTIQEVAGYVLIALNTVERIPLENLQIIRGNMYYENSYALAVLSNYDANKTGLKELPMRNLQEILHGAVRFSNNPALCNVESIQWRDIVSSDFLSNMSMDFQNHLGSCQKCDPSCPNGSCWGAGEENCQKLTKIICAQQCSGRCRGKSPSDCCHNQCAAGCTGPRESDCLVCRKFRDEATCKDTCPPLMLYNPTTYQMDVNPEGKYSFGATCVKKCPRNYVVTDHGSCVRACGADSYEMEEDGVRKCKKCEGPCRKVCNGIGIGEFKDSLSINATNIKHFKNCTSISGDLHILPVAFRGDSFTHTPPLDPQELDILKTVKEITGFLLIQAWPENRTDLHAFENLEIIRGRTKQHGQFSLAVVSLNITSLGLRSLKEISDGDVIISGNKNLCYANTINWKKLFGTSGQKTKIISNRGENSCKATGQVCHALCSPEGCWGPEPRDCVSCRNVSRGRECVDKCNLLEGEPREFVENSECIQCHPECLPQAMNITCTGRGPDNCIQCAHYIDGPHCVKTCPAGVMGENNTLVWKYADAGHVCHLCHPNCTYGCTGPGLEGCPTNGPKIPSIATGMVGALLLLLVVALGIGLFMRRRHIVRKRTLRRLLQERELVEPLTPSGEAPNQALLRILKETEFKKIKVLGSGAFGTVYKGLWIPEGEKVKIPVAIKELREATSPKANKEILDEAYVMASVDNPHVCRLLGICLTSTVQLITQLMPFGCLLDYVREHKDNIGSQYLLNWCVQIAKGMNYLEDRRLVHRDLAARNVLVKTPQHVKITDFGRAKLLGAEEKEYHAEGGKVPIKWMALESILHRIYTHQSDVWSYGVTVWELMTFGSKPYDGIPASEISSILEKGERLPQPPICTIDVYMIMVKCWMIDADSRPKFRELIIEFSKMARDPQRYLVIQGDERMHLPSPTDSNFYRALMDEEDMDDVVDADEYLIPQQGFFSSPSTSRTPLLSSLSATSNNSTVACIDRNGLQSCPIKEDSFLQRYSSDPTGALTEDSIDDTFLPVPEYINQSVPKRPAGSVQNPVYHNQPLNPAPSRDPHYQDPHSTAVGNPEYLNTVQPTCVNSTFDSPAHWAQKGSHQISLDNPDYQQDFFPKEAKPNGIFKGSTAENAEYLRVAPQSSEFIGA
Chain of EGFR^T790M (P00533 25-1210 T790M): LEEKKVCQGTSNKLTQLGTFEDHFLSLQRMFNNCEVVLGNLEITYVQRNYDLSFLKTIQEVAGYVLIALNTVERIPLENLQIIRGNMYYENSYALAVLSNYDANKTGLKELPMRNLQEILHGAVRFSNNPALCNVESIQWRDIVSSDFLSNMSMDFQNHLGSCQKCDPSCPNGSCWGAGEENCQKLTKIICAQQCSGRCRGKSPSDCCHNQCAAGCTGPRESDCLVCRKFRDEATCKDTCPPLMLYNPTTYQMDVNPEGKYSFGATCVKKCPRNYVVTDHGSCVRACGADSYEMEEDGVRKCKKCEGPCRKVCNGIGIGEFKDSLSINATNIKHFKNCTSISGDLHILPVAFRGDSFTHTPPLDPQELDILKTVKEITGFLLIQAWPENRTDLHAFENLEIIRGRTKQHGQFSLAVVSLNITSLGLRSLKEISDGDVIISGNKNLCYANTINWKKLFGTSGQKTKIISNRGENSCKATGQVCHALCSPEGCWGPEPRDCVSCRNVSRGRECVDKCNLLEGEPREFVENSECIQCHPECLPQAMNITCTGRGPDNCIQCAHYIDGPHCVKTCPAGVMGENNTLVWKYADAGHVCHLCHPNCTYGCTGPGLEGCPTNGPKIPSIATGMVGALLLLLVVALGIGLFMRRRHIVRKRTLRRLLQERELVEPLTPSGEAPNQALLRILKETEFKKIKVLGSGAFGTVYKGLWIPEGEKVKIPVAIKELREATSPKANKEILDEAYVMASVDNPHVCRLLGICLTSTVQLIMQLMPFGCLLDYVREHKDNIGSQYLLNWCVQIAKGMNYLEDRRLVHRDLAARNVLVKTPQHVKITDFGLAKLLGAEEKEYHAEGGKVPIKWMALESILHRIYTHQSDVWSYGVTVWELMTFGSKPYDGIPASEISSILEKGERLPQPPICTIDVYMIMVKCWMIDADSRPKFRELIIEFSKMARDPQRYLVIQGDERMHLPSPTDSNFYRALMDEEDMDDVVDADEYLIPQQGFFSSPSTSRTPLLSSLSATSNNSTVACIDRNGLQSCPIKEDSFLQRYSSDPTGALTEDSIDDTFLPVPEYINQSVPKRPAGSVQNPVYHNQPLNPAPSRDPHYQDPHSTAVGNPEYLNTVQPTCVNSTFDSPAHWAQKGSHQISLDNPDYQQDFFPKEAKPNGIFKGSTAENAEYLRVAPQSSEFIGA

Structure (SMILES) | inhibition at 10 µM (LOX IMVI) [%] | inhibition at 10 µM (MCF7) [%] | inhibition at 10 µM (CCRF-CEM) [%] | inhibition at 10 µM (SK-OV-3) [%] | inhibition at 10 µM (UO-31) [%] | inhibition at 10 µM (OVCAR-5) [%] | inhibition at 10 µM (ACHN) [%] | inhibition at 10 µM (COLO 205) [%] | inhibition at 10 µM (SR) [%] | inhibition at 10 µM (PC-3) [%] | inhibition at 10 µM (MDA-MB-468) [%] | inhibition at 10 µM (MOLT-4) [%] | melting point [°C] | inhibition at 10 µM (OVCAR-8) [%] | inhibition at 10 µM (HCT-116) [%] | inhibition at 10 µM (OVCAR-3) [%] | inhibition at 10 µM (A498) [%] | inhibition at 10 µM (HOP-92) [%] | inhibition at 10 µM (K-562) [%] | inhibition at 10 µM (SW-620) [%] | further results
CCOC(=O)C1=C(N)N(c2ccc(Cl)cc2)C2=C(C(=O)CC(C)(C)C2)C1c1cccc(Cl)c1Cl (racemic) [10b, (±)-Ethyl 2-amino-1–(4-chorophenyl)-4–(2,3-dichlorophenyl)-7,7-dimethyl-5-oxo-1-phenyl-1,4,5,6,7,8-hexahydroquinoline-3-carboxylate] | < 10 | 52 | 64 | 13 | 49 | < 10 | 54 | 41 | 66 | 76 | 68 | 70 | 250 to 252 | 25 | 71 | 44 | < 10 | 30 | 71 | < 10 | IC50 (EGFR^WT): 205 ± 90 nM; IC50 (EGFR^L858R): 878 ± 6 nM; inhibition at 10 µM (UACC-257): 44%; inhibition at 10 µM (NCI-H226): 42%; inhibition at 10 µM (IGROV1): < 10%; IC50 (EGFR^T790M): 954 ± 8 nM; inhibition at 10 µM (MALME-3M): 20%; inhibition at 10 µM (U251): 22%; inhibition at 10 µM (SK-MEL-2): 20%; inhibition at 10 µM (OVCAR-4): 28%; inhibition at 10 µM (HS 578T): < 10%; inhibition at 10 µM (BT-549): 31%
CCOC(=O)C1=C(N)N(c2ccc(C)cc2)C2=C(C(=O)CC(C)(C)C2)C1c1ccccc1OC (racemic) [6h, (±)-Ethyl 2-amino-4–(2-methoxyphenyl)-7,7-dimethyl-1–(4-methylphenyl)-5-oxo-1,4,5,6,7,8-hexahydroquinoline-3-carboxylate] | < 10 | < 10 | < 10 | < 10 | 21 | < 10 | < 10 | < 10 | < 10 | < 10 | < 10 | < 10 | 181 to 183 | < 10 | < 10 | < 10 | < 10 | < 10 | < 10 | < 10 | inhibition at 10 µM (UACC-257): < 10%; inhibition at 10 µM (NCI-H226): < 10%; inhibition at 10 µM (IGROV1): < 10%; inhibition at 10 µM (MALME-3M): < 10%; inhibition at 10 µM (U251): < 10%; inhibition at 10 µM (SK-MEL-2): < 10%; inhibition at 10 µM (OVCAR-4): < 10%; inhibition at 10 µM (HS 578T): < 10%; inhibition at 10 µM (BT-549): < 10%
CCOC(=O)C1=C(N)N(c2ccccc2)C2=C(C(=O)CC(C)(C)C2)C1c1ccc(F)cc1 (racemic) [8a, (±)-Ethyl 2-amino-4–(4-fluorophenyl)-7,7-dimethyl-5-oxo-1-phenyl-1,4,5,6,7,8-hexahydroquinoline-3-carboxylate] | < 10 | < 10 | < 10 | < 10 | < 10 | < 10 | < 10 | < 10 | < 10 | < 10 | < 10 | < 10 | 215 to 217 | < 10 | < 10 | < 10 | < 10 | < 10 | < 10 | < 10 | inhibition at 10 µM (UACC-257): < 10%; inhibition at 10 µM (NCI-H226): < 10%; inhibition at 10 µM (IGROV1): < 10%; inhibition at 10 µM (MALME-3M): < 10%; inhibition at 10 µM (U251): < 10%; inhibition at 10 µM (SK-MEL-2): < 10%; inhibition at 10 µM (OVCAR-4): < 10%; inhibition at 10 µM (HS 578T): < 10%; inhibition at 10 µM (BT-549): < 10%
CCOC(=O)C1=C(N)N(c2ccccc2)C2=C(C(=O)CC(C)(C)C2)C1c1cccnc1 (racemic) [12d] | < 10 | < 10 | < 10 | < 10 | 77 | < 10 | < 10 | < 10 | < 10 | < 10 | < 10 | < 10 | 215 to 217 | < 10 | < 10 | < 10 | < 10 | < 10 | < 10 | < 10 | inhibition at 10 µM (UACC-257): < 10%; inhibition at 10 µM (NCI-H226): < 10%; inhibition at 10 µM (IGROV1): < 10%; inhibition at 10 µM (MALME-3M): < 10%; inhibition at 10 µM (U251): < 10%; inhibition at 10 µM (SK-MEL-2): < 10%; inhibition at 10 µM (OVCAR-4): < 10%; inhibition at 10 µM (HS 578T): < 10%; inhibition at 10 µM (BT-549): < 10%
CCOC(=O)C1=C(N)N(c2ccccc2)C2=C(C(=O)CC(C)(C)C2)C1c1ccccn1 (racemic) [12a, (±)-Ethyl 2-amino-7,7-dimethyl-5-oxo-1-phenyl-4-(pyridin-2-yl)-1,4,5,6,7,8-hexahydroquinoline-3-carboxylate] | < 10 | < 10 | < 10 | < 10 | < 10 | < 10 | < 10 | < 10 | 16 | < 10 | < 10 | < 10 | 158 to 160 | < 10 | < 10 | < 10 | < 10 | < 10 | < 10 | < 10 | inhibition at 10 µM (UACC-257): < 10%; inhibition at 10 µM (NCI-H226): < 10%; inhibition at 10 µM (IGROV1): < 10%; inhibition at 10 µM (MALME-3M): < 10%; inhibition at 10 µM (U251): < 10%; inhibition at 10 µM (SK-MEL-2): < 10%; inhibition at 10 µM (OVCAR-4): < 10%; inhibition at 10 µM (HS 578T): < 10%; inhibition at 10 µM (BT-549): < 10%
